Target: P. falciparum apicoplast DNA polymerase (Pf-apPOL) (Plasmodium falciparum, UniProt Q8ILY1)
Assay: Fluorescence-based high-throughput DNA polymerase assay (molecular beacon), primary screen and dose-response
Format: biochemical
Procedure: The HT assay employs a molecular beacon, a stem-loop DNA template with a Cy3 dye and the Black Hole Quencher on the 3′ and 5′ ends of the DNA, respectively. Pf-apPOL concentration is based on a calculated absorptivity of ε280 = 56750 M^−1 cm^−1. Reactions were carried out at 25 °C, using Corning 3575 […] (well-volume, 20 µL). Assays testing for compound inhibition composed of reaction buffer (pH 7.9 in 50 mM potassium acetate, 20 mM Tris-acetate and 10 mM magnesium acetate), Pf-apPOL (20 nM), DNA substrate (20 nM), dNTPs (6 µM), and compound (10 µM in DMSO). The DNA and nucleotide substrates (dNTPs) were at concentrations of 20 nM and 6 µM, respectively, in the assay. Pf-apPOL was incubated in the reaction buffer with dNTPs and the compound of interest (10 µM, in the assay) at 25 °C for 10 min. The DNA substrate was then added and the reaction was allowed to proceed for 90 min at 25 °C.
Each assay plate contained 16 negative controls (no Pf-apPOL, DMSO present) and 16 positive controls (Pf-apPOL present, no DMSO). The fluorescence of each well was determined using a BioTek Synergy Neo fluorescence plate reader using excitation and emission wavelengths of 555 and 570 nm, respectively.
In the above, Min is the average of fluorescence emission of the negative controls (substrate only), Max the average fluorescence emission from the positive controls (enzyme + substrate), and Test the emission from the assays in the presence of compounds (enzyme + compound + substrates). […] […] The IC50 of each compound was determined using Equation (2): (2) IC50= Vmax/(1+ (I/IC50)^n)
In the above, n measures cooperativity, with n > 1 indicating synergistic binding of more than a single molecule of the compound.
To identify apPOL inhibitors we utilised our previously developed high-throughput DNA polymerase assay. The HT assay is based on a molecular beacon DNA template that forms a stem-loop with a Cy3 dye and the Black Hole Quencher on the 3′ and 5′ ends of the DNA, respectively. DNA polymerase activity extends an annealed primer through the stem region, displacing the fluorophore from the quencher, thereby increasing its fluorescence (Figure 1(A)). The assay accurately recapitulates the kinetic behaviour of apPOL, as measured through more conventional low-throughput gel-based assays. The Z′ factor for the assay described here was 0.9 across all plates (data not shown).
Figure 1. High-throughput screening. (A) The fluorescent-based DNA polymerase assay used to screen the compound libraries. The DNA template strand is a hairpin loop with a primer annealed to the loop. The 3’ end of the primer is 11 bases away from the 6 bp duplex. Strand displacement activity of the DNA polymerase separates the Cy3 dye from the Black hole quencher leading to an increase in fluorescent signal. (B) The high-throughput assay workflow. The DNA polymerase is incubated with […] compound for 10 min prior to addition of the hairpin substrate. The reaction is quenched at 3 different time points and the fluorescent signal is measured and % inhibition is determined using the provided equation.

P. falciparum apicoplast DNA polymerase (Pf-apPOL), sequence (Q8ILY1 entry or part of it): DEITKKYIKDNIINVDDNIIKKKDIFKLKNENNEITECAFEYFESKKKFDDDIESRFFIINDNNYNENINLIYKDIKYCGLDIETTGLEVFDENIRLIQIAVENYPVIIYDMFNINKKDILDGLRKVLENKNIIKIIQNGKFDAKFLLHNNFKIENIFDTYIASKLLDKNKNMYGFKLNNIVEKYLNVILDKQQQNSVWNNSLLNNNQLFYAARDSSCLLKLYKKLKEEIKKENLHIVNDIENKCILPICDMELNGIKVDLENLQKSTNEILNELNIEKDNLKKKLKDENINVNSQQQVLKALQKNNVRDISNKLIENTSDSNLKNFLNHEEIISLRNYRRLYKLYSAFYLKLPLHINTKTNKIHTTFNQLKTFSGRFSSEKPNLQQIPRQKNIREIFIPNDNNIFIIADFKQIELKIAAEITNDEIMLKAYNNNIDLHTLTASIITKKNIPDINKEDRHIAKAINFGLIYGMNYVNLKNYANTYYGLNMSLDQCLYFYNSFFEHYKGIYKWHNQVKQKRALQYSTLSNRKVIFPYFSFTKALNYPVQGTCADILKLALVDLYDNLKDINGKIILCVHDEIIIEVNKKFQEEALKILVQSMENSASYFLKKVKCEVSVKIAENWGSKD

O=C(O)c1nc(-c2ccccc2)nc2c1OCO2 [Molecule 45, OC(=O)c1nc(nc2c1OCO2)c1ccccc1]
% inhibition Apo pol 10' (DRC-1; concentration 2.5; 10'): 6.785% | % inhibition Apol 90' (DRC-1; concentration 2.5; 90'): -0.7182% | % inhibition apPOL 180' (DRC-1; concentration 2.5; 180'): -6.279% | % inhibition Apo pol 10' (DRC-1; concentration 5; 10'): 18.6858% | % inhibition Apol 90' (DRC-1; concentration 5; 90'): 2.776% | % inhibition apPOL 180' (DRC-1; concentration 5; 180'): -4.7971% | % inhibition Apo pol 10' (DRC-1; concentration 10; 10'): 46.4099% | % inhibition Apol 90' (DRC-1; concentration 10; 90'): 22.6615% | % inhibition apPOL 180' (DRC-1; concentration 10; 180'): 10.4504% | % inhibition Apo pol 10' (DRC-1; concentration 20; 10'): 71.5187% | % inhibition Apol 90' (DRC-1; concentration 20; 90'): 46.4112% | % inhibition apPOL 180' (DRC-1; concentration 20; 180'): 26.9983% | % inhibition Apo pol 10' (DRC-1; concentration 40; 10'): 89.2051% | % inhibition Apol 90' (DRC-1; concentration 40; 90'): 75.6472% | % inhibition apPOL 180' (DRC-1; concentration 40; 180'): 64.3043% | % inhibition Apo pol 10' (DRC-1; concentration 80 (unit not given); 10'): 95.8219% | % inhibition Apol 90' (DRC-1; concentration 80; 90'): 92.7909% | % inhibition apPOL 180' (DRC-1; concentration 80; 180'): 90.3482% | % inhibition Apol 40' (DRC-2; 40'; concentration 2.5): 7% | % inhibition Apol 40' (DRC-2; 40'; concentration 10): 34% | % inhibition Apol 40' (DRC-2; 40'; concentration 40): 69% | % inhibition ApPOL 90' (DRC-2; 90'; concentration 5): 7% | % inhibition ApPOL 90' (DRC-2; 90'; concentration 40): 69% | % inhibition apPOL 180' (DRC-2; 180'; concentration 20): 34% | % inhibition Apo pol 5' (DRC-2; concentration 2.5; 5'): 13% | % inhibition Apol 40' (DRC-2; concentration 2.5; 40'): 7% | % inhibition ApPOL 90' (DRC-2; concentration 2.5; 90'): 4% | % inhibition apPOL 180' (DRC-2; concentration 2.5; 180'): -1.61% | % inhibition Apo pol 5' (DRC-2; concentration 5; 5'): 24% | % inhibition Apol 40' (DRC-2; concentration 5; 40'): 14% | % inhibition ApPOL 90' (DRC-2; concentration 5; 90'): 7% | % inhibition apPOL 180' (DRC-2; concentration 5; 180'): -1.28% | % inhibition Apo pol 5' (DRC-2; concentration 10; 5'): 42% | % inhibition Apol 40' (DRC-2; concentration 10; 40'): 34% | % inhibition ApPOL 90' (DRC-2; concentration 10; 90'): 27% | % inhibition apPOL 180' (DRC-2; concentration 10; 180'): 17% | % inhibition Apo pol 5' (DRC-2; concentration 20; 5'): 50% | % inhibition Apol 40' (DRC-2; concentration 20; 40'): 51% | % inhibition ApPOL 90' (DRC-2; concentration 20; 90'): 45% | % inhibition apPOL 180' (DRC-2; concentration 20; 180'): 34% | % inhibition Apo pol 5' (DRC-2; concentration 40; 5'): 58% | % inhibition Apol 40' (DRC-2; concentration 40; 40'): 69% | % inhibition ApPOL 90' (DRC-2; concentration 40; 90'): 69% | % inhibition apPOL 180' (DRC-2; concentration 40; 180'): 68% | % inhibition Apo pol 5' (DRC-2; concentration 80; 5'): 60% | % inhibition Apol 40' (DRC-2; concentration 80; 40'): 77% | % inhibition ApPOL 90' (DRC-2; concentration 80; 90'): 80% | % inhibition apPOL 180' (DRC-2; concentration 80; 180'): 82% | DNA Pol (primary screen value of the 186 hits; unit not given; 90 min, 10 µM): 34 | DNA Pol (primary screen value; head prints only 'DNA Pol'; 90 min, 10 µM): 34

O=C(O)c1ccc(COc2cc([N+](=O)[O-])cc3cccnc23)cc1 [KU0058403]
DNA Pol ('DNA Pol' of the 186 hits list (screen value); 90 min, 10 µM): 59 | % inhibition Apo pol 10' (DRC-1; 10'; conc 2.5): 14.3649% | % inhibition Apo pol 10' (DRC-1; 10'; conc 5): 27.7405% | % inhibition Apo pol 10' (DRC-1; 10'; conc 10): 42.2641% | % inhibition Apo pol 10' (DRC-1; 10'; conc 20): 75.4082% | % inhibition Apo pol 10' (DRC-1; 10'; conc 40): 92.5507% | % inhibition Apo pol 10' (DRC-1; 10'; conc 80): 97.3906% | % inhibition Apol 90' (DRC-1; 90'; conc 2.5): 7.929% | % inhibition Apol 90' (DRC-1; 90'; conc 5): 14.8475% | % inhibition Apol 90' (DRC-1; 90'; conc 10): 27.7051% | % inhibition Apol 90' (DRC-1; 90'; conc 20): 56.1594% | % inhibition Apol 90' (DRC-1; 90'; conc 40): 83.537% | % inhibition Apol 90' (DRC-1; 90'; conc 80): 95.378% | % inhibition apPOL 180' (DRC-1; 180'; conc 2.5): 6.111% | % inhibition apPOL 180' (DRC-1; 180'; conc 5): 9.076% | % inhibition apPOL 180' (DRC-1; 180'; conc 10): 18.5156% | % inhibition apPOL 180' (DRC-1; 180'; conc 20): 39.8383% | % inhibition apPOL 180' (DRC-1; 180'; conc 40): 74.9259% | % inhibition apPOL 180' (DRC-1; 180'; conc 80): 94.2886% | % inhibition Apo pol 5' (DRC-2; 5'; conc 2.5): 17% | % inhibition Apo pol 5' (DRC-2; 5'; conc 5): 21% | % inhibition Apo pol 5' (DRC-2; 5'; conc 10): 31% | % inhibition Apo pol 5' (DRC-2; 5'; conc 20): 43% | % inhibition Apo pol 5' (DRC-2; 5'; conc 40): 55% | % inhibition Apo pol 5' (DRC-2; 5'; conc 80): 60% | % inhibition Apol 40' (DRC-2; 40'; conc 2.5): 10% | % inhibition Apol 40' (DRC-2; 40'; conc 5): 14% | % inhibition Apol 40' (DRC-2; 40'; conc 10): 23% | % inhibition Apol 40' (DRC-2; 40'; conc 20): 39% | % inhibition Apol 40' (DRC-2; 40'; conc 40): 59% | % inhibition Apol 40' (DRC-2; 40'; conc 80): 74% | % inhibition ApPOL 90' (DRC-2; 90'; conc 2.5): 7% | % inhibition ApPOL 90' (DRC-2; 90'; conc 5): 12% | % inhibition ApPOL 90' (DRC-2; 90'; conc 10): 19% | % inhibition ApPOL 90' (DRC-2; 90'; conc 20): 35% | % inhibition ApPOL 90' (DRC-2; 90'; conc 40): 57% | % inhibition ApPOL 90' (DRC-2; 90'; conc 80): 76% | % inhibition ApPOL 90' (DRC-2; 90'; concentration 80): 76% | % inhibition apPOL 180' (DRC-2; 180'; conc 2.5): 1.43% | % inhibition apPOL 180' (DRC-2; 180'; conc 5): 2.25% | % inhibition apPOL 180' (DRC-2; 180'; conc 10): 8.43% | % inhibition apPOL 180' (DRC-2; 180'; conc 20): 22% | % inhibition apPOL 180' (DRC-2; 180'; conc 40): 48% | % inhibition apPOL 180' (DRC-2; 180'; conc 80): 76% | % inhibition apPOL 180' (DRC-2; 180'; concentration 80): 76% | DNA Pol (primary screen value, "DNA Pol"; 90 min, 10 µM): 59

Reference: publication PMC9090415, “Discovery of small molecule inhibitors of Plasmodium falciparum apicoplast DNA polymerase” (Journal of Enzyme Inhibition and Medicinal Chemistry, 2022)
